Experimental data as given in US6376510B1, “Neuromuscular relaxants” (Newlaxant LLC, priority 1997, dated 2002).

Tests used:
[1] = tested on: anesthetized monkeys; assay: In vivo neuromuscular block and cardiovascular side effects, monkey (Example 8, Table 6); details: for ΔBP (change in arterial blood pressure) / ΔH (change in heart rate): in vivo; for ED50: intravenous dose causing 50% neuromuscular block; for RI (recovery index): spontaneous recovery, 25-75% neuromuscular response; for Onset: time to 80-85% neuromuscular block
Outline: (§1)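 Electromyographic and mechanomyographic responses quantified. Monkeys sedated with intramuscular ketamine, then general anesthesia with intravenous pentobarbital and propofol; juvenile pigs induced with inhaled halothane.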

[2] = tested on: anesthetized rats (evoked responses of anterior tibial muscle); assay: In vivo neuromuscular block and cardiovascular side effects, anesthetized rat (Example 8, Table 3); details: rat; for VB (vagal block) / ΔBP (change in arterial blood pressure) / ΔH (change in heart rate): in vivo; for ED50: intravenous dose causing 50% neuromuscular block; for RI (recovery index): spontaneous recovery, 25-75% neuromuscular response; for Onset: time to 80-85% neuromuscular block
Outline: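 Pentobarbital-anesthetized (i.p.), ventilated adult male rats given saline-dissolved agents i.v.; anterior tibial EMG responses to supramaximal single or train-of-four sciatic/peroneal stimuli, plus 0.1 or 1 Hz stimulation. Doses for 50%, 80%, 90% block derived. Onset: minutes to 80-85% block; RI: 25-75% spontaneous recovery; vagal block, heart rate and blood pressure changes (%) at 80-85% blocking dose.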

[3] = tested on: rabbits; assay: In vivo neuromuscular block and cardiovascular side effects, rabbit (Example 8, Table 7); details: for ΔBP (change in arterial blood pressure) / ΔH (change in heart rate): in vivo; for ED50: intravenous dose causing 50% neuromuscular block; for RI (recovery index): spontaneous recovery, 25-75% neuromuscular response; for Onset: time to 80-85% neuromuscular block
[4] = tested on: dogs; assay: animal or person; type: in vivo; details: dog; for ΔBP (change in arterial blood pressure) / ΔH (change in heart rate): in vivo; for ED50: intravenous dose causing 50% neuromuscular block; for RI (recovery index): spontaneous recovery, 25-75% neuromuscular response; for Onset: time to 80-85% neuromuscular block
[5] = tested on: anesthetized juvenile pigs; assay: animal or person; type: in vivo; details: pig; for VB (vagal block) / ΔBP (change in arterial blood pressure) / ΔH (change in heart rate): in vivo; for ED50: intravenous dose causing 50% neuromuscular block; for RI (recovery index): spontaneous recovery, 25-75% neuromuscular response; for Onset: time to 80-85% neuromuscular block
Outline: as §1

[6] = tested on: anesthetized cats (evoked responses of anterior tibial muscle); assay: animal or person; details: for ED50 / RI (recovery index) / Onset: cat; for ED50: intravenous dose causing 50% neuromuscular block; for RI (recovery index): spontaneous recovery, 25-75% neuromuscular response; for Onset: time to 80-85% neuromuscular block
Outline: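 Adult cats anesthetized i.p. with 70 mg/kg alpha chloralose plus 0.5 g/kg ethylurethane; agents in saline given i.v. Anterior tibial muscle responses to supramaximal single or train-of-four stimuli of sciatic or peroneal nerve recorded electromyographically and mechanomyographically, alongside blood pressure and heart rate.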

`CC(=O)Oc1ccc(C[N+]2(C)C3CCCC2CC(OC(=O)C2CCC2C(=O)OC2CC4CCCC(C2)[N+]4(C)Cc2ccc(OC(C)=O)c(OC(C)=O)c2)C3)cc1OC(C)=O.[Br-].[Br-]` (centres unmarked) [bis[N-(3,4-diacetoxybenzyl)granataninium-3-yl]cyclobutane-1,2-dicarboxylate dibromide] was tested, and the “ΔBP (change in arterial blood pressure)” value [1] was 0%, the “ΔH (change in heart rate)” value [1] was 0% and the ED50 [1] was 0.086 mg/kg. The “RI (recovery index)” value [1] was 0.4 min, the Onset [1] was 0.7 min and the “VB (vagal block)” value [2] was 2%. For the same molecule, the “ΔBP (change in arterial blood pressure)” value [2] was 0%, the “ΔH (change in heart rate)” value [2] was 0% and the ED50 [2] was 0.133 mg/kg. The “RI (recovery index)” value [2] was 0.4 min, the Onset [2] was 0.5 min and the “ΔBP (change in arterial blood pressure)” value [3] was 0%. The “ΔH (change in heart rate)” value [3] was 0%, the ED50 [3] was 0.115 mg/kg and the “RI (recovery index)” value [3] was 0.6 min. For the same molecule, the Onset [3] was 0.6 min, the “ΔBP (change in arterial blood pressure)” value [4] was −5% and the “ΔH (change in heart rate)” value [4] was 27%. The ED50 [4] was 0.15 mg/kg, the “RI (recovery index)” value [4] was 0.7 min and the Onset [4] was 0.75 min. The “VB (vagal block)” value [5] was 15%, the “ΔBP (change in arterial blood pressure)” value [5] was 0% and the “ΔH (change in heart rate)” value [5] was 0%. For the same molecule, the ED50 [5] was 0.1 mg/kg, the “RI (recovery index)” value [5] was 1 min and the Onset [5] was 0.8 min. The ED50 [6] was 0.4 mg/kg, the “RI (recovery index)” value [6] was 0.5 min and the Onset [6] was 0.6 min. The “ΔBP (change in arterial blood pressure)” value ([6]; in vivo) was 0% and the “ΔH (change in heart rate)” value ([6]; in vivo) was 0%.

With `CC(=O)Oc1ccc(C[N+]2(C)C3CCCC2CC(OC(=O)CCCC(=O)OC2CC4CCCC(C2)[N+]4(C)Cc2ccc(OC(C)=O)c(OC(C)=O)c2)C3)cc1OC(C)=O.[Br-].[Br-]` (centres unmarked) [bis[N-(3,4-diacetoxybenzyl)granataninium-3-yl]glutarate dibromide] the “ΔBP (change in arterial blood pressure)” value [1] was 0%, the “ΔH (change in heart rate)” value [1] was 0% and the ED50 [1] was 0.075 mg/kg. The “RI (recovery index)” value [1] was 0.4 min, the Onset [1] was 0.7 min and the “VB (vagal block)” value [2] was 0%. For the same molecule, the “ΔBP (change in arterial blood pressure)” value [2] was 0%, the “ΔH (change in heart rate)” value [2] was 0% and the ED50 [2] was 0.17 mg/kg. For the same molecule, the “RI (recovery index)” value [2] was 0.45 min, the Onset [2] was 0.6 min and the “ΔBP (change in arterial blood pressure)” value [3] was 0%. For the same molecule, the “ΔH (change in heart rate)” value [3] was 0%, the ED50 [3] was 0.165 mg/kg and the “RI (recovery index)” value [3] was 0.55 min. For the same molecule, the Onset [3] was 0.65 min, the “ΔBP (change in arterial blood pressure)” value [4] was −18% and the “ΔH (change in heart rate)” value [4] was 50%. The ED50 [4] was 0.225 mg/kg, the “RI (recovery index)” value [4] was 0.6 min and the Onset [4] was 0.65 min. The “VB (vagal block)” value [5] was 40%, the “ΔBP (change in arterial blood pressure)” value [5] was 0% and the “ΔH (change in heart rate)” value [5] was 0%. For the same molecule, the ED50 [5] was 0.235 mg/kg, the “RI (recovery index)” value [5] was 0.9 min and the Onset [5] was 0.8 min. For the same molecule, the ED50 [6] was 0.7 mg/kg, the “RI (recovery index)” value [6] was 0.4 min and the Onset [6] was 0.7 min. For the same molecule, the “VB (vagal block)” value ([6]; in vivo) was 60%, the “ΔBP (change in arterial blood pressure)” value ([6]; in vivo) was −50% and the “ΔH (change in heart rate)” value ([6]; in vivo) was 0%.
